{"source": "patent US12133846B2", "about": "“Electrophilic androgen receptor (AR) antagonists for AR downregulation and ferroptosis induction in cancer cells” (priority 2019, dated 2024)", "key": {"VCaP cells [1]": {"system": "VCaP cells", "experiment": "MTT viability assay, VCaP cells", "type": "cell-based", "conditions": "Homo sapiens, VCaP, 72 h, read-out: IC50, viability of VCaP cells", "description": "(§1) Biological Characterization. ITC-ARi hybrid drugs effectively reduce the viability of PCa cells. By using an MTT assay, it was first examined if the newly synthesized hybrid drugs affect the viability of CRPC-relevant PCa cells. PCa VCaP cells naturally express abundant wild type FL AR as well as AR splice variants (e.g., AR-V7). These cells were, therefore, used as one of the cell culture models in this work to investigate the drug-caused viability loss and AR downregulation."}, "22Rv1 cells": {"system": "22Rv1 cells", "experiment": "MTT viability assay, 22Rv1 cells", "type": "cell-based", "conditions": "5 μM, 72 h", "description": "as §1"}, "C4-2 cells [2]": {"system": "C4-2 cells", "experiment": "MTT viability assay, C4-2 cells", "type": "cell-based", "conditions": "5 μM, 72 h", "description": "as §1"}, "LNCaP and RWPE-1 cells": {"system": "LNCaP and RWPE-1 cells", "experiment": "MTT viability, PCa LNCaP versus non-cancerous RWPE-1 cells", "type": "cell-based", "conditions": "72 h, 2.5 to 10 μM", "description": "Because of the better selectivity and water solubility of 2-63 over 12b, 2-63 was used for further in vitro characterization and mechanistic studies."}, "[3]": {"system": "AR transcriptional activity in MDA-kb2 cells", "experiment": "cells", "type": "cell-based", "conditions": "DHT 1 nM", "procedure": "MDA-kb2-cell-based ARE luciferase assays were performed to assess the influence of 2-63 and related compounds on AR transcriptional activity. […] Upon androgen stimulation and addition of a luciferase substrate, […], and the intensity is proportional to the extent of AR activation. An agent that either antagonistically competes with DHT for AR binding or reduces the expression of AR diminishes luciferase activity/fluorescence signal in this experimental system. […] 10b (an alcohol) and 11 b (an azide) are synthetic precursors of the ITC hybrid 12b.\nLuciferase Assay. […] For all procedures, cells were incubated at CO2 free condition. Steady-Glo® (Promega Corp., Madison, WI) reagent was added to culture media with shaking for 10 min. Samples (100 μL) were transferred to an opaque 96-well white plate, and luminescence was measured using a luminometer."}, "FL AR and AR-V7 [4]": {"system": "FL AR and AR-V7", "experiment": "Western blotting of FL AR and AR-V7 in VCaP cells", "type": "cell-based", "conditions": "10 μM, 12 h time course", "procedure": "Western Blotting. […] Proteins in cell lysates (40 μg) were separated using electrophoresis on SDS-PAGE and transferred onto PVDF (polyvinylidenedifluoride) membranes. Membranes were blocked in 5% fat-free milk followed by incubation with primary antibodies overnight at 4° C., and the secondary horseradish peroxidase-conjugated anti-rabbit or anti-mouse antibodies. The blots were developed in the Enhanced Chemiluminescence mixture and detected by ImageQuant™ LAS 4000 imaging system (GE). Density of protein bonds were calculated and analyzed by using imageJ software downloaded from the National Institute of Health website."}, "FL AR and AR-V7 [5]": {"system": "FL AR and AR-V7", "experiment": "Cycloheximide chase of AR protein stability in VCaP cells", "type": "cell-based", "conditions": "cycloheximide 25 μg/mL, 2-63 10 μM, 2-16 h", "procedure": "FL AR is a client protein of Hsp90, and AR-V7 might be chaperoned by Hsps other than Hsp90 (Moses, et al., Cancer Res. 2018, 78, 4022-4035). Because Hsp70 upregulation is an indicator of heat shock protein disruption (Kitson, et al., Nat. Chem. 2013, 5, 307-314) that causes client protein degradation, it was assessed whether 2-63 could change the protein stability of AR and AR-V7. […] 2-63-induced AR/AR-V7 downregulation was partially rescued by the proteasome inhibitor MG-132 (data not shown). This supports the involvement of proteasome degradation in AR reduction. Besides the posttranslational mechanisms, AR downregulation could also be caused by suppressing transcription factors (TFs) that drive the transcription of the AR gene. Sp1 and c-Myc were selected as representatives that could be affected by 2-63. Multiple Sp1 binding sites are located near the transcriptional initiation region of the AR gene.\nWestern Blotting. […] The protein concentration of supernatants was determined using the Pierce BCA Protein Assay Kit (Thermo Fisher, Cat #23225). […] The blots were developed in the Enhanced Chemiluminescence mixture and detected by ImageQuant™ LAS 4000 imaging system (GE). Density of protein bonds were calculated and analyzed by using imageJ software downloaded from the National Institute of Health website."}, "PARP cleavage": {"system": "PARP cleavage", "experiment": "PARP cleavage under 2-63 plus BSO in PCa cells", "type": "cell-based", "conditions": "2-63 plus BSO combination, data not shown", "description": "2-63 and BSO combination induces ferroptosis in PCa cells. […] Because both ITC and BSO change redox balance, and because the significant upregulation of HO-1 by 2-63 (FIG. 21) may increase free ferrous iron (Fe2+) inside cells, ferroptosis, a recently defined non-apoptotic cell death mechanism that occurs due to ROS and iron-caused oxidative lipid damage (Stockwell, et al., Cell 2017, 171, 273-285) was explored."}, "C4-2 cells [6]": {"system": "C4-2 cells", "conditions": "5 μM, DHT 1 nM, charcoal stripped FBS, 6 days", "protocol": "The medium and drug were refreshed every two days.\nThe anti-PCa potential of 2-63 was further characterized by assessing its inhibitory effects on DHT-stimulated C4-2 cell growth. […] C4-2 cells were cultured in charcoal-stripped, steroid-free medium and cells were stimulated with androgen."}, "VCaP cells [7]": {"system": "VCaP cells", "experiment": "BSO pretreatment plus drug, MTT viability, VCaP cells", "protocol": "Cell viability was then assessed using an MTT assay.\nPCa cells (6×10^3 cells/well) were seeded into 96-well plates overnight and then treated with indicated compounds at indicated concentrations and time durations. The MTT (3-(4, 5-Dimethylthiazol-2-yl)-2,5-diphenyltetrazolium bromide) assay was performed according to the standard protocol. Briefly, MTT (0.5 mg/mL) was incubated with cells at 37° C. for 3 hours. Supernatant was removed, followed by the addition of dimethyl DMSO (100 μl). After incubation for 30 minutes at 37° C., absorbance was read at 570 nm on a microplate reader."}}}
{"smiles": "CC(=O)N[C@H](CSC(=S)NCCCCCCc1ccc(N2C(=S)N(c3ccc(C#N)c(C(F)(F)F)c3)C(=O)C2(C)C)cn1)C(=O)O", "note": "[2-63, N-acetyl-S-((6-(5-(3-(4-cyano-3-(trifluoromethyl)phenyl)-5,5-dimethyl-4-oxo-2-thioxoimidazolidin-1-yl)pyridine-2-yl)hexyl)carbamothioyl)-D-cysteine]", "values": [{"measurement": "IC50", "setting": "VCaP cells [1]", "result": 6.09, "unit": "µM"}, {"measurement": "relative potency in viability reduction, 22Rv1 cells", "setting": "22Rv1 cells", "result": 12, "unit": "b>2-63>PEITC-NAC"}, {"measurement": "relative potency in viability reduction, C4-2 cells", "setting": "C4-2 cells [2]", "result": 12, "unit": "b>2-63>PEITC-NAC"}, {"measurement": "differential anti-proliferative effect, LNCaP vs RWPE-1 cells", "setting": "LNCaP and RWPE-1 cells", "result": "more tolerated by RWPE-1 cells"}, {"measurement": "AR inhibition at 1 μM relative to Enz, 10b and 11b", "setting": "[3]; 1 μM", "result": "less effective"}, {"measurement": "suppression of DHT-stimulated luciferase activity", "setting": "[3]; 1-5 μM", "result": "decreased luciferase activity in a dose-dependent manner"}, {"measurement": "AR inhibition at higher concentrations relative to comparators", "setting": "[3]; 2.5 and 5 μM", "result": "similarly with these non-ITC-containing compounds"}, {"measurement": "FL AR and AR-V7 in time course", "setting": "FL AR and AR-V7 [4]", "result": "time-dependent decline"}, {"measurement": "stability of FL AR and AR-V7 proteins", "setting": "FL AR and AR-V7 [5]", "result": "significantly reduced"}, {"measurement": "PARP cleavage", "setting": "PARP cleavage", "result": "did not cause detectable PARP cleavage"}, {"measurement": "viability reduction of DHT-stimulated C4-2 cells", "setting": "C4-2 cells [6]", "result": 70, "unit": "%"}, {"measurement": "combinatorial effect with BSO (interaction index), VCaP", "setting": "VCaP cells [7]; BSO 2.5-10 μM 16 h pretreatment, then 2-63 1-10 μM 24 h, synergism = index <0.8", "result": "synergistically reduced viability"}, {"measurement": "viability suppression, VCaP cells", "setting": "VCaP cells [7]; BSO plus 2-63 reduced to 2.5 μM, 24 h", "result": 60, "unit": "%"}]}
